From patent US20080064052A1, “Crystal of a Receptor-Ligand Complex and methods of use” (priority 2006, published 2008)
“And” between values parts separate entries of the source, which are not always exact repeats. Equal values may be shown once. Read-outs that look alike come from different tables or passages of the source. Ends that are not written are not given here. Peptide text beside a SMILES is read from it. * marks the point of attachment. Biotin = O=C1N[C@H]2[C@H](CS[C@H]2CCCCC(=O)*)N1

T1: mouse EphB4 ectodomain Fc fusion protein (Mus musculus, UniProt P54761)
T1 sequence (P54761 16-539 limits assumed): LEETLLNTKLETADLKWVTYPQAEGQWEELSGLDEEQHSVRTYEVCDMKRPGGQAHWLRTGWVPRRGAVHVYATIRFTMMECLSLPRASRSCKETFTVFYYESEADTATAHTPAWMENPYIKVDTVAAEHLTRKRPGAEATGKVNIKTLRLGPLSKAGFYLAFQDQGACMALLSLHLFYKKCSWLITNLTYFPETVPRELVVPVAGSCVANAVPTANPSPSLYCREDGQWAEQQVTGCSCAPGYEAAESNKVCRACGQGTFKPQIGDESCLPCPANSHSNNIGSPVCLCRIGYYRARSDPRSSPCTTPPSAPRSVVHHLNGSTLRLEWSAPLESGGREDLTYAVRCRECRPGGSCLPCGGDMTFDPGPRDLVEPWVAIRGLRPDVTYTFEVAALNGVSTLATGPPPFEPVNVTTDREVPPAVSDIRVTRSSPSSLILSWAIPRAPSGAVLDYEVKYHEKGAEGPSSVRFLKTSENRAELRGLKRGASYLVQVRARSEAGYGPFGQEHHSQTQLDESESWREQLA

T2: human EphB4 ephrin-binding domain (Homo sapiens, UniProt P54760)
T2 sequence (P54760 17-196): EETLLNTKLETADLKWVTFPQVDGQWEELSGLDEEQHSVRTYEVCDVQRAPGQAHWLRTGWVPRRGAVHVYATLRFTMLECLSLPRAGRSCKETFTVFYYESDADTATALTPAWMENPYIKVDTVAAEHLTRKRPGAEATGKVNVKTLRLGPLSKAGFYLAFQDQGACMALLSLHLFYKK

T3: mouse EphB4 ectodomain Fc fusion protein (mouse EphB4-Fc-His, R&D Systems) (mouse, UniProt P54761 16-539)
T3 construct: extracellular domain; also called murine EphB4; not shown: Fc part of a bought fusion protein; His tag of the bought protein
T3 sequence (looked up): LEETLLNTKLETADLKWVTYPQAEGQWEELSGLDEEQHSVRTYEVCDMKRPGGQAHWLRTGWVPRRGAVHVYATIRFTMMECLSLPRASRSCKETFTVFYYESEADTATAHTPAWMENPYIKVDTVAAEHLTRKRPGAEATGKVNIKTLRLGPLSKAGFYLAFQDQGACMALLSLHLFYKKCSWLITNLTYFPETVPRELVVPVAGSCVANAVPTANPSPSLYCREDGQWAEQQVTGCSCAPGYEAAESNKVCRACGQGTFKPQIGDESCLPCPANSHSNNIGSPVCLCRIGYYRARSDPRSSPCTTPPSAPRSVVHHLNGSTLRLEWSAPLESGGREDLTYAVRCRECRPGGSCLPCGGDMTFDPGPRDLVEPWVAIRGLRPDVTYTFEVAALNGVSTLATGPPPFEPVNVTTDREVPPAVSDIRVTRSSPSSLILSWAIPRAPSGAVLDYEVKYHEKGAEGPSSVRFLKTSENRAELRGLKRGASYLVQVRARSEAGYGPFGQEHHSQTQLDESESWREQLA

T4: human EphB4 ephrin-binding domain, EphB4 (17-196) (human, UniProt P54760 17-196)
T4 sequence: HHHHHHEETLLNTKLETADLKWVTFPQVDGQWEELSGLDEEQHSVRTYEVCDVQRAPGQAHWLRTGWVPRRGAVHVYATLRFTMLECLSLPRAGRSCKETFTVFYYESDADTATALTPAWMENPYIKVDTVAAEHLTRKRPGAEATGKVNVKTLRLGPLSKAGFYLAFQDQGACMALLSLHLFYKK

B1: Eph-binding domain of human ephrin-B2 (ligand)
chain: IVLEPIYWNSSNSKFLPGQGLVLYPQIGDKLDIICPKVDSKTVGQYEYYKVYMVDKDQADRCTIKKENTPLLNCAKPDQDIKFTIKFQEFSPNLWGLEFQKNKDYYIISTSNGSLEGLDNQEGGVCQTRAMKILMKVG
B2: Human ephrin-B2 monomer (ligand)
chain: IVLEPIYWNSSNSKFLPGQGLVLYPQIGDKLDIICPKVDSKTVGQYEYYKVYMVDKDQADRCTIKKENTPLLNCAKPDQDIKFTIKFQEFSPNLWGLEFQKNKDYYIISTSNGSLEGLDNQEGGVCQTRAMKILMKVG
B3: ephrin-B2 Fc (Fc fusion, not shown: a dimerising Fc or GST; large carriers; small tags and cut ends)
chain: RSIVLEPIYWNSSNSKFLPGQGLVLYPQIGDKLDIICPKVDSKTVGQYEYYKVYMVDKDQADRCTIKKENTPLLNCARPDQDVKFTIKFQEFSPNLWGLEFQKNKDYYIISTSNGSLEGLDNQEGGVCQTRAMKILMKVGQDASSAGSARNHGPTRRPELEAGTNGRSSTTSPFVKPNPGSSTDGNSAGHSGNNLLGSEVALFA

How the values were obtained:
[1] = biological target: T1, mouse EphB4 ectodomain Fc fusion protein; assay: ELISA competition: inhibition of mouse ephrin-B2 alkaline phosphatase (AP) binding to immobilized mouse EphB4 ectodomain Fc; conditions: murine receptor; for IC50: IC50 for inhibition of mouse ephrin-B2 AP binding to immobilized mouse EphB4 ectodomain Fc, ELISA binding assay
[2] = biological target: T2, human EphB4 ephrin-binding domain; assay: Isothermal titration calorimetry (ITC) binding to EphB4 (17-196); conditions: 25° C., 50 mM Tris pH 7.8, 150 mM NaCl
Experimental: Peptides were dissolved into the same buffer used for the dialysis of EphB4. […] ITC experiments were performed with a Microcal MCS ITC at 25° C. Following an initial injection of 2 μl, titrations were performed by making 20 13 μl injections of peptide into EphB4 in the sample cell to produce an approximate final 2:1 ratio of injectant to sample in the cell. […] Prior to loading the sample cell, EphB4 was centrifuged at 18,000 g for 5 min at 4° C. to remove aggregates and degassed for 5 minutes at room temperature. […] Dilution data were fit to a line and subtracted from the corresponding titration data.

[3] = biological target: T3, mouse EphB4 ectodomain Fc fusion …; assay: competition ELISA: inhibition of mouse ephrin-B2 AP binding to immobilized mouse EphB4 ectodomain Fc
Experimental: The ability of peptides to compete the binding of mouse ephrin-B2 alkaline phosphatase to immobilized mouse EphB4-Fc-His (R&D Systems) was measured by ELISA as previously described (Koolpe et al., 2005).

[4] = biological target: T4, human EphB4 ephrin-binding domain, …; assay: ITC at 25 °C, 290 µM ephrin-B2 injected into 13 µM human EphB4 (17-196)
Experimental: Experiments were performed at 25° C. in 50 mM Tris pH 7.8, 150 mM NaCl, 1 mM CaCl₂.
(§1) Isothermal titration calorimetry and ELISA experiments: EphB4and ephrin-B2 were either dialyzed or buffer exchanged into 50 mM Tris-Cl (pH 7.8 at 25° C.), 150 mM NaCl, 1 mM CaCl₂, prior to use in calorimetry experiments. Peptides were dissolved into the same buffer used for the dialysis of EphB4. The concentration of EphB4, ephrin-B2 and the peptides was determined by measuring the A₂₈₀ and using the theoretical-extinction coefficient (Gill and von Hippel, 1989). ITC experiments were performed with a Microcal MCS ITC at 25° C. Following an initial injection of 2 μl, titrations were performed by making 20 13 μl injections of peptide into EphB4 in the sample cell to produce an approximate final 2:1 ratio of injectant to sample in the cell. For most titrations the sample cell contained 15 μM EphB4 and the injection syringe contained a 200 μM solution of the peptide. Titrations with ephrin-B2 contained 13 μM EphB4 in the sample cell and 290 μM ephrin-B2 in the syringe. Prior to loading the sample cell, EphB4 was centrifuged at 18,000 g for 5 min at 4° C. to remove aggregates and degassed for 5 minutes at room temperature. Corrections for heats of dilution for the peptides and ephrin-B2 were determined by performing titrations of peptide or ephrin-B2 solutions into buffer. Dilution data were fit to a line and subtracted from the corresponding titration data. Titration data were analyzed using Origin ITC software (Version 5.0, Microcal Software Inc.) and curves were fit to a single binding site model (Wiseman et al., 1989). […] A lower limit for the binding constant was determined by performing a titration in which the sample cell contained 30 μM EphB4 and the injection syringe contained a 1.45 mM solution of the peptide, producing a final ratio of peptide to EphB4 of 10:1.

[5] = biological target: T4, human EphB4 ephrin-binding domain, …; assay: ITC at 25 °C, peptide injected into human EphB4 (17-196)
Experimental: as §1, with “10:1. The data was fit assuming a stoichiometry of 1 and at least 60% saturation of binding at the final peptide concentration (Turnbull and Daranas, 2003).” for “10:1.”

| Molecule | IC50 [1] | TΔS ([2]; 1 mM CaCl2) [kcal/mol] | ΔG ([2]; 1 mM CaCl2) [kcal/mol] | ΔH ([2]; 1 mM CaCl2) | also measured |
| --- | --- | --- | --- | --- | --- |
| CC[C@H](C)[C@H](NC(=O)[C@@H]1CCCN1C(=O)CNC(=O)[C@H](CC(N)=O)NC(=O)[C@@H]1CCCN1C(=O)[C@H](CO)NC(=O)[C@H](Cc1ccccc1)NC(=O)[C@@H](N)CC(C)C)C(=O)N[C@@H](C)C(=O)N[C@@H](CCCNC(=N)N)C(=O)N[C@@H](C)C(=O)N[C@@H](Cc1c[nH]c2ccccc12)C(=O)O [LFSP-RAW] (H-LFSPNGPIARAW-OH; N-terminus and C-terminus assumed) | > 10000 nM | 2.1 ± 0.4 | -7.4 ± 0.1 | -5.3 ± 0.5 kcal/mol | – |
| CC[C@H](C)[C@H](NC(=O)[C@@H]1CCCN1C(=O)CNC(=O)[C@H](CC(N)=O)NC(=O)[C@@H]1CCCN1C(=O)[C@H](CO)NC(=O)[C@H](Cc1ccccc1)NC(=O)[C@H](CC(C)C)NC(=O)[C@H](Cc1ccc(O)cc1)NC(=O)[C@@H](N)CC(N)=O)C(=O)N[C@@H](C)C(=O)N[C@@H](CCCNC(=N)N)C(=O)N[C@@H](C)C(=O)N[C@@H](Cc1c[nH]c2ccccc12)C(=O)O [NYLF-RAW] (H-NYLFSPNGPIARAW-OH; N-terminus and C-terminus assumed) | 40 nM | -5.7 ± 0.1 | -9.8 ± 0.1 | -15.5 ± 0.1 kcal/mol | – |
| CC[C@H](C)[C@H](NC(=O)[C@@H]1CCCN1C(=O)CNC(=O)[C@H](CC(N)=O)NC(=O)[C@@H]1CCCN1C(=O)[C@H](CO)NC(=O)[C@H](Cc1ccccc1)NC(=O)[C@H](CC(C)C)NC(=O)[C@H](Cc1ccc(O)cc1)NC(=O)[C@H](CC(N)=O)NC(=O)[C@@H](N)[C@@H](C)O)C(=O)N[C@@H](C)C(=O)N[C@@H](CCCNC(=N)N)C(=O)N[C@@H](C)C(=O)N[C@@H](Cc1c[nH]c2ccccc12)C(=O)O [TNYL-RAW] (H-TNYLFSPNGPIARAW-OH; N-terminus assumed) | ~15 nM and 15 nM | -4.9 ± 0.2 | -9.8 ± 0.1 | -14.7 kcal/mol and -14.7 ± 0.2 kcal/mol | Kd ([2]; Kd, 1 mM CaCl2): 70 nM |
| CC[C@H](C)[C@H](NC(=O)[C@@H]1CCCN1C(=O)CNC(=O)[C@H](CC(N)=O)NC(=O)[C@@H]1CCCN1C(=O)[C@H](CO)NC(=O)[C@H](Cc1ccccc1)NC(=O)[C@H](CC(C)C)NC(=O)[C@H](Cc1ccc(O)cc1)NC(=O)[C@H](CC(N)=O)NC(=O)[C@@H](N)[C@@H](C)O)C(=O)N[C@@H](C)C(=O)O [TNYL] | ~150000 nM and 150000 nM | – | – | -9.6 ± 0.3 kcal/mol | fold less potent than TNYL-RAW (IC50) ([1]; ratio of IC50 values): 10,000 fold; Kd ([2]; 1 mM CaCl2, read-out: Kd): ≥ 140000 nM |
| CC[C@H](C)[C@H](NC(=O)[C@@H]1CCCN1C(=O)CNC(=O)[C@H](CC(N)=O)NC(=O)[C@@H]1CCCN1C(=O)[C@H](CO)NC(=O)[C@H](Cc1ccccc1)NC(=O)[C@H](CC(C)C)NC(=O)[C@@H](N)Cc1ccc(O)cc1)C(=O)N[C@@H](C)C(=O)N[C@@H](CCCNC(=N)N)C(=O)N[C@@H](C)C(=O)N[C@@H](Cc1c[nH]c2ccccc12)C(=O)O [YLFS-RAW] (H-YLFSPNGPIARAW-OH; N-terminus and C-terminus assumed) | 40 nM | -4.1 ± 0.4 | -9.7 ± 0.2 | -13.8 ± 0.5 kcal/mol | – |
| TNYLFSPNGPIAGSGSK(Biotin) [TNYL-biotin peptide (TNYLFSPNGPIAGSGSK-biotin)] | – | – | – | – | IC50 [3]: 50000 nM |
| B1 | – | – | – | – | Kd [4]: 40 nM; TΔS [4]: 13.4 kcal/mol; ΔG [4]: -10.2 kcal/mol; ΔH [4]: 3.3 kcal/mol |
| B2 | – | – | – | – | IC50 [3]: 10 nM |
| NYLFSPNGPIARAW [NYLF-RAW peptide (NYLFSPNGPIARAW)] | – | – | – | – | Kd [5]: 65 nM; TΔS [5]: -5.7 kcal/mol; ΔG [5]: -9.8 kcal/mol; ΔH [5]: -15.5 kcal/mol |
| B3 | – | – | – | – | IC50 [3]: 9 nM |
| YLFSPNGPIARAW [YLFS-RAW peptide (YLFSPNGPIARAW)] | – | – | – | – | Kd [5]: 80 nM; TΔS [5]: -4.1 kcal/mol; ΔG [5]: -9.7 kcal/mol; ΔH [5]: -13.8 kcal/mol |
